Data on three compounds can be found in BindingDB's records for doi:10.1021/cb900264w (The Weizmann Institute of Science, 2010).

Experiment [1] concerns the target T1, Amine oxidase [flavin-containing] B (Rattus norvegicus, UniProt P19643).
T1 sequence (P19643 whole entry): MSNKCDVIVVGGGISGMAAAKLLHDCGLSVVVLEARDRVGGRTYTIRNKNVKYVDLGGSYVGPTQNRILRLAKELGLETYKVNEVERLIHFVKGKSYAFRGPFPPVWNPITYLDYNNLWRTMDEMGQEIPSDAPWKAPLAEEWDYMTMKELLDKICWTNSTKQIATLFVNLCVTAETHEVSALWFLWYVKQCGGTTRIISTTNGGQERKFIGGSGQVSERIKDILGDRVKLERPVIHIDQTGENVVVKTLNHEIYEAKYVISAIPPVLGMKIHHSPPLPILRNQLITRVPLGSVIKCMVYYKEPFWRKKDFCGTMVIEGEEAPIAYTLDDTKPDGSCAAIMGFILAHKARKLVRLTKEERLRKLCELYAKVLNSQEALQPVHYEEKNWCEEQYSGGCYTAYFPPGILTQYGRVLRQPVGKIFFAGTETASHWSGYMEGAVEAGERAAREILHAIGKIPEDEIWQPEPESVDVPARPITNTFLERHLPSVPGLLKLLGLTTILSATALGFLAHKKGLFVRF
As to the kind of experiment: Enzyme Inhibition Assay. The note with it: pH 7.4; 37 °C. An excerpt:
(§1) Inhibition of MAO activity in rat brain homogenates.

The target of experiment [2] is T2, Amine oxidase [flavin-containing] A (Rattus norvegicus, UniProt P21396).
T2 sequence (P21396 whole entry): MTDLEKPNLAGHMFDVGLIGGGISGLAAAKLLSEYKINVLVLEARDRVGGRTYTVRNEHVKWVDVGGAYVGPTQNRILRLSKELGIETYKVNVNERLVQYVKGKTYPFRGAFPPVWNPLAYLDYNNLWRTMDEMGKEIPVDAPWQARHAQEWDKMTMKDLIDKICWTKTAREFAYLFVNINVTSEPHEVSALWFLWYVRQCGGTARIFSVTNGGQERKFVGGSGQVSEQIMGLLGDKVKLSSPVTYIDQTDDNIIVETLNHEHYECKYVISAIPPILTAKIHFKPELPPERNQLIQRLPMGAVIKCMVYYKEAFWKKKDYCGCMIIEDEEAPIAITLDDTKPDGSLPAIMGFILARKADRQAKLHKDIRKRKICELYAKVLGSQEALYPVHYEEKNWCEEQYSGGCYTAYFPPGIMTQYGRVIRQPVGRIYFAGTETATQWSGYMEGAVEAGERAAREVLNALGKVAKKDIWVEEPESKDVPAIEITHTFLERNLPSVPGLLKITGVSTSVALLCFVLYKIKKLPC
Description: Enzyme Inhibition Assay. The note with it: pH 7.4; 37 °C.
From the text: as §1

As a reminder, the IC50 is the midpoint of a concentration-inhibition curve. Low values mean greater potency, high ones weaker potency. In turn, `C#CCN(C)Cc1ccc(O)c2ncccc12` [Chelator, M30] came in with an IC50 in experiment [1] of 37 nM.
On to `C#CCN(C)Cc1ccc(OC(=O)N(C)CC)c2ncccc12` [Prochelators, 3], for which the IC50 in experiment [2] was 9.6 nM.
As to `C#CCN(C)Cc1ccc(OC(=O)N(C)C)c2ncccc12` [Prochelators, 2], the IC50 worked out at 7900 nM in experiment [1] and 7.7 nM in experiment [2].
